The record followed here is publication PMC8595653, “Activation of specific bitter taste receptors by olive oil phenolics and secoiridoids” (Scientific Reports, 2021).

Entries after “also recorded” stand apart in the source; their conditions may differ.

Experiment [1] concerns the target TAS2R38 (Homo sapiens, UniProt P59533). The note with it: 1 mM, versus empty pcDNA vector. On the procedure: (§1) 25 human TAS2R genes were subcloned into the pcDNA 3.1 vector, as previously descripted in the literature[44],[53]. The first 45 amino acids of the rat somatostatin type 3 receptor, which serves as a cell-surface-targeting signal, were added to the N-termini of the TAS2Rs to target them more efficiently to the cell surface. Herpes simplex virus (HSV) glycoprotein D epitopes were added to the carboxy termini of the receptors for immunocytochemistry. All constructs were confirmed by DNA sequencing.
(§2) HEK293E cells were cultured at 37 °C in DMEM (Thermo Fisher Scientific), supplemented with 10% fetal bovine serum (FBS) and 1% Penicillin Streptomycin. The cells were seeded onto 96-well plates (Clear Bottom Black Polystyrene Poly-D-Lysine Coated Microplates, Corning life sciences) at a density of 50,000 (in 100 μl DMEM) per well, and cultured at 37 °C for overnight. On the second day following seeding, the medium was changed to OPTI-MEM supplemented with 5% FBS (filtered) before co-transfection using Polyethylenimine (PEI) (1.6 μg/well) with plasmid DNAs encoding TAS2Rs (0.1 μg/well), Gα16-gust44 (0.06 μg/well) and the GCaMP calcium sensor (0.035 μg/well). After 24 h, the medium was changed to fresh OPTI-MEM supplemented with 5% FBS (filtered) and 0.1% Plasmocin (InvivoGen). […]

Experiment [2] has as its system 25 human TAS2Rs. The experiment can be described thus: Single dose scanning of phenolic compounds on the 25 bitter taste receptors (calcium mobilization, HEK293E). In kind it is cell-based. The following applies: single dose 300 µM, 25 TAS2Rs, N = 2. The procedure: (§3) All constructs were confirmed by DNA sequencing.
(§4) Data from single dose experiments were collected as duplicates. […] Data represent mean ± SD.
(§5) To characterize the bitterness of olive oil phenolic compounds, we performed calcium mobilization experiments. The 25 bitter taste receptors, G protein chimera (Gα16-gus44), and the GCaMP calcium sensor[68] were transiently expressed in HEK293E cells. Twelve olive oil phenolic compounds (Fig. 1) were tested for bitter taster receptor activation (Fig. 3). […] Ligstroside aglycon, and Oleuropein aglycon activated TAS2R1, TAS2R8 and TAS2R14 receptors. To validate the single dose scanning results, we performed concentration–response experiments for all the compounds toward receptors TAS2R1, TAS2R8, and TAS2R14 that produced the most significant responses (Fig. 4).
Figure 3 Phenolic compound bitter taste activity tests on hTAS2Rs. Relative fluorescence signals caused by phenolic compound activation of the receptors and the empty vector as a negative control. The concentration of the compounds used was [300 µM], except for Ligstroside aglycon and Oleuropein aglycon [200 µM], oleuropein that was [3 mM]. The asterisks indicate significant differences tested by one-way ANOVA (***p < 0.0001) (N = 2). Data represent mean ± SD.

The target in experiment [3] is T1, TAS2R50 (Homo sapiens, UniProt P59544).
T1 construct: first 45 amino acids of rat somatostatin type 3 receptor (SSTR3) export tag (N); expressed in transfected cells; host or cells: HEK293E
T1 sequence (P59544 whole entry): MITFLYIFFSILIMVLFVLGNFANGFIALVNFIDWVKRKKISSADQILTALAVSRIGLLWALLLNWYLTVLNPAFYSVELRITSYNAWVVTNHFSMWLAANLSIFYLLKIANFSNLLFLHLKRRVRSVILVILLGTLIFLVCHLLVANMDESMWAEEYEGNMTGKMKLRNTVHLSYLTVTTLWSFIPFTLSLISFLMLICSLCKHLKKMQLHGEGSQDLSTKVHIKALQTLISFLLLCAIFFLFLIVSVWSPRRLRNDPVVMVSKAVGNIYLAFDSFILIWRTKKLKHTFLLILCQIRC
Briefly: Calcium mobilization functional assay, TAS2R50. Type of experiment: cell-based. The note with it: 1 mM, versus empty pcDNA vector.
Text: as §3, §4
On the technique in general: Calcium flux is commonly read through the fluorescence of an indicator in the cells.

Experiment [4] addresses T2, TAS2R43 (Homo sapiens, UniProt P59537).
T2 construct: first 45 amino acids of rat somatostatin type 3 receptor (SSTR3) export tag (N); expressed in transfected cells; host or cells: HEK293E
Briefly: Calcium mobilization functional assay, TAS2R43. Type of experiment: cell-based. The following applies: 30 µM, versus empty pcDNA vector.
Text: as §3, §4

Experiment [5] deals with T3, TAS2R31 (Homo sapiens, UniProt P59538).
T3 construct: first 45 amino acids of rat somatostatin type 3 receptor (SSTR3) export tag (N); expressed in transfected cells; host or cells: HEK293E
T3 sequence (P59538 whole entry): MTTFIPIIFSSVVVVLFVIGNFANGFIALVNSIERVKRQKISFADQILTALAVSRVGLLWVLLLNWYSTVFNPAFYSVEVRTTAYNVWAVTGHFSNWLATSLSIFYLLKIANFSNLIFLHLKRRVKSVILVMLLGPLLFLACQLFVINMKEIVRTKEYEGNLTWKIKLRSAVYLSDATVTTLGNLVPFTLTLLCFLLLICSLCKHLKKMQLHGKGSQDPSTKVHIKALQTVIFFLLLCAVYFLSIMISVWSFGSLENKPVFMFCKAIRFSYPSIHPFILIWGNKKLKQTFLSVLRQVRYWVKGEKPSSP
Briefly: Calcium mobilization functional assay, TAS2R31. Type of experiment: cell-based. The note with it: 30 µM, versus empty pcDNA vector.
Text: as §3, §4

Experiment [6] concerns the target T4, TAS2R20 (Homo sapiens, UniProt P59543).
T4 construct: first 45 amino acids of rat somatostatin type 3 receptor (SSTR3) export tag (N); expressed in transfected cells; host or cells: HEK293E
The experiment can be described thus: Calcium mobilization functional assay, TAS2R20 (RTP3 and RTP4 co-expressed). The following applies: 10 mM, versus empty pcDNA vector. In kind it is cell-based.
Text: as §3, §4

For experiment [7], the target named is T5, TAS2R30 (Homo sapiens, UniProt P59541).
T5 construct: first 45 amino acids of rat somatostatin type 3 receptor (SSTR3) export tag (N); expressed in transfected cells; host or cells: HEK293E
T5 sequence (P59541 whole entry): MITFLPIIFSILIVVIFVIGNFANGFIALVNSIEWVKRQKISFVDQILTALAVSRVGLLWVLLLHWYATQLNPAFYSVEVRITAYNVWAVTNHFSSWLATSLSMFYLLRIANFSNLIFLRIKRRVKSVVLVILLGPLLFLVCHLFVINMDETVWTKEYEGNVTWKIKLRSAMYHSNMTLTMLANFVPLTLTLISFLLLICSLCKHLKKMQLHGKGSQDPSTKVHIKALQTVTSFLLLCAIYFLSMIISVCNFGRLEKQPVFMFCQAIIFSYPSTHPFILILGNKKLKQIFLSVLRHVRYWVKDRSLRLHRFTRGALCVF
Briefly: Calcium mobilization functional assay, TAS2R30. Type of experiment: cell-based. The note with it: 300 µM, versus empty pcDNA vector.
Text: as §3, §4

Experiment [8] addresses T6, TAS2R14 (Homo sapiens, UniProt Q9NYV8).
T6 construct: first 45 amino acids of rat somatostatin type 3 receptor (SSTR3) export tag (N); expressed in transfected cells; host or cells: HEK293E
T6 sequence (Q9NYV8 1-317): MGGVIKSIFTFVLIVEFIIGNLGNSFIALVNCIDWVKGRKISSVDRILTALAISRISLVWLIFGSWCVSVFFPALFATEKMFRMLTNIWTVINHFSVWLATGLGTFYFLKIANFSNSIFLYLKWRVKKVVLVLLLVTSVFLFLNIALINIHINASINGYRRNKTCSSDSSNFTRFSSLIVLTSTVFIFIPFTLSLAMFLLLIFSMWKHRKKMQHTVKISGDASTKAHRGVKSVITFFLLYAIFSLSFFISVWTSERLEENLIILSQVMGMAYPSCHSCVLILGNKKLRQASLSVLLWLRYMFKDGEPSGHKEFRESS
Briefly: Calcium mobilization functional assay, TAS2R14 co-expressed with Gα16-gust44 and GCaMP in HEK293E cells. Type of experiment: cell-based. The following applies: 0.3 mM, versus empty pcDNA vector. The procedure:
as §3, §4, §5

The target of experiment [9] is T7, TAS2R40 (Homo sapiens, UniProt P59535).
T7 construct: first 45 amino acids of rat somatostatin type 3 receptor (SSTR3) export tag (N); expressed in transfected cells; host or cells: HEK293E
T7 sequence (P59535 whole entry): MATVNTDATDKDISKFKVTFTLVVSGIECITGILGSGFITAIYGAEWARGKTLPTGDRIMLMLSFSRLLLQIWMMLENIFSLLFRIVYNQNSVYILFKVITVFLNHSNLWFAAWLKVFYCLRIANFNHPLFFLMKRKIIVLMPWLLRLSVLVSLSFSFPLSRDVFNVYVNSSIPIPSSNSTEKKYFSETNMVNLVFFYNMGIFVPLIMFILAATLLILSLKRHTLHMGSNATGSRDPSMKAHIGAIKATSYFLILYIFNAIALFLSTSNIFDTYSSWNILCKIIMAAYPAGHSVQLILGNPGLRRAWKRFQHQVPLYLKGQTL
The experiment can be described thus: Calcium mobilization functional assay, TAS2R40. In kind it is cell-based. The following applies: 30 µM, versus empty pcDNA vector.
Text: as §3, §4

Experiment [10] addresses T8, TAS2R39 (Homo sapiens, UniProt P59534).
T8 construct: first 45 amino acids of rat somatostatin type 3 receptor (SSTR3) export tag (N); expressed in transfected cells; host or cells: HEK293E
Briefly: Calcium mobilization functional assay, TAS2R39. Type of experiment: cell-based. The note with it: 10 mM, versus empty pcDNA vector.
Text: as §3, §4

Experiment [11] deals with TAS2R46 (Homo sapiens, UniProt P59540). The note with it: 300 µM, versus empty pcDNA vector. The procedure:
as §1, §2

Chain of TAS2R46 (P59540 whole entry): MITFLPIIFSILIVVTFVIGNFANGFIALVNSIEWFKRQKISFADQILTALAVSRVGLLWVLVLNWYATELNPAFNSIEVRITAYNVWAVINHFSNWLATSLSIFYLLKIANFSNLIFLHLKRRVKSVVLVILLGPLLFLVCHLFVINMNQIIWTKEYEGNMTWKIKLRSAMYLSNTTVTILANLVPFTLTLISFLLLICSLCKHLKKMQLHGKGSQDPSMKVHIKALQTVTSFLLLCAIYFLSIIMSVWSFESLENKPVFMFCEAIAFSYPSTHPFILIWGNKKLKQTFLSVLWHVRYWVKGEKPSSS
T2 sequence (P59537 whole entry): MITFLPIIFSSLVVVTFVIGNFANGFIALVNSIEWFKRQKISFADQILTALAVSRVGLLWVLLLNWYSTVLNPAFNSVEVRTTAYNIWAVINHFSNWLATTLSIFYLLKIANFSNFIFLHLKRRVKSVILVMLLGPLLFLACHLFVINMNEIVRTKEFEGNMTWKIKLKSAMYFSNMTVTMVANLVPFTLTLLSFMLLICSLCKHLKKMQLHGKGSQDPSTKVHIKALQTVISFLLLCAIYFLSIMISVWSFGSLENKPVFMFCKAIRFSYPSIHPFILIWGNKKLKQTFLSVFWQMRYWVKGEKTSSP
T4 sequence (P59543 whole entry): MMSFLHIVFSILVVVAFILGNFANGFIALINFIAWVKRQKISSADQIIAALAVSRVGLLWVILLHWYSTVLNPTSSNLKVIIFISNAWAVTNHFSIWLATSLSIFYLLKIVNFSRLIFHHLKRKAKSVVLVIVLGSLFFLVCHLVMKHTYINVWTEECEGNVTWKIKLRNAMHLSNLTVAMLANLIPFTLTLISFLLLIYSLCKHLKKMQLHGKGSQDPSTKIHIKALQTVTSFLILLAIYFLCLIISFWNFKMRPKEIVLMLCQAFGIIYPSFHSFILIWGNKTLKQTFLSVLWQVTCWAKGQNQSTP
Chain of TAS2R38 (P59533 whole entry): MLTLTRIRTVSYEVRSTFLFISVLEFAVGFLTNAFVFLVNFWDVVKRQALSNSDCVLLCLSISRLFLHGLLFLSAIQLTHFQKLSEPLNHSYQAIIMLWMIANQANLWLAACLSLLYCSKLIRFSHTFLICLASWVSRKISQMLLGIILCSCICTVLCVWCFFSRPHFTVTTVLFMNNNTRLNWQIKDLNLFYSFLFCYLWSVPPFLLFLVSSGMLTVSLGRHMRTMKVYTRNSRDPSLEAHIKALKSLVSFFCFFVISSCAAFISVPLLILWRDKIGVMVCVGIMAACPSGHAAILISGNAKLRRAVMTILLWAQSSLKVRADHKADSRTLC
T8 sequence (P59534 whole entry): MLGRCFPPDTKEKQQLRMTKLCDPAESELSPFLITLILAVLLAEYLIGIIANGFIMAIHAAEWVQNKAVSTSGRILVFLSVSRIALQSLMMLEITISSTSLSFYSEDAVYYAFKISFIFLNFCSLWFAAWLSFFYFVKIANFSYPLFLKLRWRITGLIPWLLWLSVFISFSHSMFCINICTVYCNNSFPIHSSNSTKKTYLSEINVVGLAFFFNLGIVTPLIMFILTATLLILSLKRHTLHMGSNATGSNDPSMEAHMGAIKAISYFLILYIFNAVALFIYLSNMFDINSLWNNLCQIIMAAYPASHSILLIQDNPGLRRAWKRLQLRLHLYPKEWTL

For the compound `CCCc1cc(=O)[nH]c(=S)[nH]1` [PROP, 6-n-propylthiouracil], the “activation of TAS2R38” value in [1] is on record as “activated”. For the compound `OCCc1ccc(O)cc1` [Tyrosol, tyrosol], the “activation of any TAS2R” value in experiment [2] is reported as “did not activate any TAS2Rs; also recorded: failed to activate any bitter receptor; also recorded: failed to activate any TAS2Rs”. In the case of `C=C1CC[C@@H]2[C@](C)(CO)[C@H](O)CC[C@@]2(C)[C@@H]1C/C=C1/C(=O)OC[C@H]1O` [andrographolide], the “activation of TAS2R50” value in experiment [3] was “activated”.

In the case of `COc1cccc2c1cc([N+](=O)[O-])c1c(C(=O)O)cc3c(c12)OCO3` [aristolochic acid], the “activation of TAS2R43” value in [4] is recorded as “activated”. For the same compound, in experiment [5], the “activation of TAS2R31” value is “activated”. Take `O=C(O)c1cc(=O)c2c(OCC(O)COc3cccc4oc(C(=O)O)cc(=O)c34)cccc2o1` [cromolyn]: the “activation of TAS2R20” value in experiment [6] was “activated”.

With `CC[N+](CC)(CC(=O)Nc1c(C)cccc1C)Cc1ccccc1` [denatonium, denatonium benzoate], in experiment [7], the “activation of TAS2R30” value was “activated”. For `O=C(O)c1ccccc1Nc1cccc(C(F)(F)F)c1` [flufenamic acid, reference compound], the “activation of TAS2R14” value in experiment [8] is “activated”. Regarding `CC(C)=CCC1C(=O)C(C(=O)CC(C)C)=C(O)C(O)(CC=C(C)C)C1=O` (centres unmarked) [humulone], the “activation of TAS2R40” value in experiment [9] was “activated”. Regarding `CNC(=C[N+](=O)[O-])NCCSCc1ccc(CN(C)C)o1` [ranitidine], the “activation of TAS2R39” value in [10] is “activated”. As to `O=C1C[C@@H]2OCC=C3CN4CC[C@]56c7ccccc7N1[C@H]5[C@H]2[C@H]3C[C@H]46` [strychnine], the “activation of TAS2R46” value in experiment [11] is given as “activated”.
